Results from patent US9457029B2, “Treatment of genotyped diabetic patients with DPP-IV inhibitors such as linagliptin” (Boehringer Ingelheim International GmbH, priority 2009, dated 2016).

Columns and labels:
[1] = test system: inadequately controlled, metformin-treated type 2 diabetic patients; test: 12-week randomized, double-blind study of BI 1356 add-on to metformin vs placebo or open label glimepiride; type: in vivo, human
Procedure: Efficacy and safety of BI 1356 (1, 5, or 10 mg qd), a potent and selective dipeptidyl peptidase-4 (DPP-4) inhibitor, was examined in inadequately controlled, metformin-treated (MET, ≧1 g daily) type 2 diabetic patients (T2DM; HbA1c at baseline 7.5-10.0%). Effects were compared to add-on of placebo (PBO) or of open label glimepiride (GLIM; 1 to 3 mg qd) in a 12-week randomized, double-blind study. Antidiabetic medication other than metformin was washed out for 6 weeks (34.7% of the patients).
The primary endpoint was change from baseline in HbA1c, adjusted for prior antidiabetic medication. 333 patients (mean baseline HbA1c 8.3%; fasting plasma glucose [FPG] 185 mg/dL) were randomized to BI 1356, PBO or open-label GLIM. […] Reductions in FPG from baseline to Week 12 with BI 1356 were statistically significant (1 mg, −19 mg/dL; 5 mg, −35 mg/dL; 10 mg, −30 mg/dL). […] For this dose, >80% DPP-4 inhibition at trough in >80% of the patients at week 12 was achieved.
In total, 106 patients (43.1%) experienced adverse events (AEs) with similar incidences across all treatments. Most frequently reported episodes were nasopharyngitis (7.5%), diarrhoea (3.3%), and nausea (3.0%). […] Ten patients (3.7%) experienced serious AEs but none of these events were considered drug-related.

[2] = test system: patients with type 2 diabetes mellitus and insufficient glycemic control; type: in vivo, human
Procedure: A multi-center, 24-week, randomized, double-blind, placebo-controlled, parallel group study investigates the efficacy and safety of initial combination therapy with the DPP-4 inhibitor linagliptin (LI) and pioglitazone (PIO). […] Mean baseline characteristics (HbA1c 8.6%; fasting plasma glucose [FPG] 190 mg/dL; age 57.5 yrs; BMI 29.0 kg/m2) are similar between the groups. […] After 24 weeks of treatment, the adjusted mean change in HbA1c for the patients in the LI+ PIO group (full analysis set, last observation carried forward) is −1.06% (standard error (SE)±0.06). The difference in the adjusted mean HbA1c for the LI+ PIO group compared with PBO+PIO is −0.51% (p<0.0001; 95% confidence interval (CI), −0.71, −0.30). […] The proportion of patients that experienced at least one adverse event (AE) is similar for both LI+ PIO and PBO+PIO groups (136, 52.5% vs. 53.1%, respectively). Hypoglycemia is rare, occurring in 3 patients (1.2%) in the LI+ PIO group and none in the PBO+PIO group. All hypoglycemic events are of mild intensity.

[3] = test system: Japanese patients with type 2 diabetes mellitus; details: VB 0.2 mg tid
[4] = test system: the diabetic; details: metformin on its own; cited from earlier work
[5] = 5 mg LI plus 30 mg PIO qd or 30 mg PIO plus placebo qd, 24 weeks

CCC1=C(C)CN(C(=O)NCCc2ccc(S(=O)(=O)NC(=O)N[C@H]3CC[C@H](C)CC3)cc2)C1=O [GLIM, glimepiride, reference compound]
drug-related hypoglycaemia, number of patients ([1]; GLIM 1 to 3 mg qd add-on to metformin, 12 weeks): 3 patients | mean PBO corrected reduction in HbA1c ([1]; open label GLIM 1 to 3 mg qd add-on to metformin, Week 12): −0.90%

CCc1ccc(CCOc2ccc(CC3SC(=O)NC3=O)cc2)nc1 (stereo not drawn) [PBO+PIO, pioglitazone]
patients achieving a reduction in HbA1c of ≧0.5% [2, 5]: 50.8% | patients achieving a target HbA1c of <7% [2, 5]: 30.5% | hypoglycemia, number of patients ([2]; in vivo): none | proportion of patients that experienced at least one adverse event (AE) ([2]; in vivo): 53.1%

OCC(CO)N[C@H]1C[C@](O)(CO)[C@@H](O)[C@H](O)[C@H]1O [VB, voglibose, reference compound]
proportion of patients whose HbA1c level lowered by ≧0.5% ([3]; 26 weeks): 37.7% | proportion of patients achieving HbA1c<7.0% ([3]; after 26 weeks): 22.2%

CN(C)C(=N)N=C(N)N [metformin]
average improvement in the HbA1c value [4]: 1.0-1.5%
